Results taken from patent US20260199282A1, “METHODS AND COMPOSITIONS FOR IMPROVING DRIVING PERFORMANCE” (priority 2022, published 2026).

What was measured:
Assay type in all cases: in vivo, human
[1] = system: subjects with EDS due to OSA; assay: Standardized on-road highway driving test, OSA study
Protocol: This was a randomized, double-blind, placebo-controlled, crossover, on-road driving study in subjects with EDS due to OSA. A total of 40 adult subjects were planned for enrollment, and 34 subjects were randomized. Subjects received either solriamfetol (150 mg QD for 3 days, followed by 300 mg QD for 4 days) or matching placebo for 7 days, and then crossed over to receive the other treatment regimen for 7 days (FIG. 4). […] The PVT was administered predose and prior to each driving test. Actigraphy and a sleep diary were used to assess daily sleep patterns. The Toronto Hospital Alertness Test (THAT) was administered at baseline and at the end of each treatment period. A Follow-up Visit was performed approximately 7 days after the final dose of study drug. Subjects were recruited at clinical sites. Eligibility was determined through screening procedures (including a Maintenance of Wakefulness Test [MWT]) at the clinical sites after the washout of prohibited medications, and a practice driving test at the driving test site. A total of 40 adult subjects were planned for enrollment; 34 subjects were randomized and analyzed for safety and efficacy.
Assessments to determine driving performance included: standard deviation of lateral position (SDLP; Verster and Roth 2011; Raemakers 2017), standard deviation of speed (SDS), and number of driving lapses (also known as lane drift, defined as deviations>100 cm from the mean lateral position and from the absolute lateral position for 8 seconds; Vinckenbosch 2020). Driving performance was assessed using a standardized on-road driving test on Day 7 (Visit 4) and on Day 14 (Visit 5). A practice driving test was performed during the screening period to familiarize the subject with the vehicle and test scenario, assess if the subject could adequately operate the manual transmission vehicle, and determine if any safety concerns existed that excluded the subject from participating in the study.
During each drive, subjects operated a specially instrumented vehicle for approximately 1 hour over a 100 km (61 mile) primary highway circuit. During each driving test, each subject was accompanied by a licensed driving instructor who had access to dual controls (i.e., brakes, clutch, and accelerator). The subject or instructor could stop the test if either considered it unsafe to continue. The subject was instructed to drive with a steady lateral position between the delineated boundaries of the slower (right) traffic lane, while maintaining a constant speed of
95 km/h (58 mph). Subjects could deviate from these instructions only to pass a slower vehicle, to respond to a slower speed in traffic ahead of him/her and to leave and re-enter the highway at the turnaround point. During the drive, the vehicle's speed and lateral distance to the left lane line were continuously recorded and captured on an onboard computer disk file. Subjects were transported to and from the driving circuit on each test day.
The primary analysis was based on the mITT population. The primary outcome measure of mean change in SDLP was analyzed using a repeated mixed effect analysis of variance (ANOVA) model. The model included treatment (solriamfetol and placebo), driving performance test (2 hours postdose and 6 hours postdose), treatment period, treatment sequence, and treatment by driving performance test interaction as fixed effects and subject as a random effect. The 2-sided 95% confidence intervals of solriamfetol-placebo changes for SDLP based on the repeated mixed effect ANOVA model was constructed for each driving performance test.
Individual changes (solriamfetol minus placebo) in driving performance were measured by SDLP at 2 hours and 6 hours postdose. The Maximum McNemar symmetry analyses (Laska et al. 2012) were used to detect an asymmetry in the distribution of the change in driving performance at 2 hours and 6 hours post-dose. […]

participants with OSA = assay: Actual task effectiveness from PVT inverse reaction time, OSA; conditions: OSA n=31
Protocol: (§1) Actual task effectiveness scores were calculated based on each participant's inverse reaction time (IRT [1/RT]) as described below. Sleep intervals derived from participants' actigraphy data—or from sleep diaries, if available, where actigraphy data were missing—were used to calculate modeled healthy control task effectiveness scores using the SAFTE. Participants evidenced good sleep hygiene, with minimal missing data. Task effectiveness was not modeled for participants missing data from the night before PVT testing. A SAFTE model effectiveness score of 100 indicates typical best performance during the day, based on a normal healthy population. SAFTE-FAST effectiveness predictions have been validated against IRT on the PVT [22].
(§2) Actual effectiveness scores were calculated as a percentage of a theoretical “best performance” from participants' average IRT per PVT trial (for all PVT test sessions, actual effectiveness=IRT/3.96×100). Average speed (IRT) on a PVT under optimal conditions—healthy sleepers taking the test at 11:00 in the morning, following an 8-hour sleep opportunity—is approximately 3.96 [40], and is assumed to represent an actual effectiveness score of 100 (a healthy participant's typical best performance). Repeated-measures analysis of variance (ANOVA) was used to estimate the effect of treatment on actual effectiveness over time.

[2] = system: participants with narcolepsy; assay: Actual task effectiveness from PVT inverse reaction time, narcolepsy; conditions: narcolepsy n=20
Protocol: as §1, §2

[3] = 2 hours postdose, mITT, primary analysis, listed as JZP-110
[4] = 2 hours postdose, sequence JZP-110/Placebo, mITT
[5] = 2 hours postdose, sequence Placebo/JZP-110, mITT
[6] = 6 hours postdose, sequence JZP-110/Placebo, mITT
[7] = 6 hours postdose, sequence Placebo/JZP-110, mITT

NC(=O)OC[C@H](N)Cc1ccccc1 [Solriamfetol, (R)-2-amino-3-phenylpropyl carbamate]
Maximum McNemar test, distribution of change in driving performance ([1]; 2 hours and 6 hours post-dose, mITT): did not show asymmetry | driving lapses, LS mean difference solriamfetol vs placebo ([1]; 2 hours postdose): −1.128 lapses | standard deviation of speed (SDS), LS mean difference ([1]; 2 hours postdose): 0.068 km/h | SDLP, mean (SD), observed ([1]; 2 hours postdose, day 7, 300 mg/day, mITT): 18.83 (3.690) cm | SDLP, mean (SD) difference (JZP-110 − Placebo) ([1]; 2 hours postdose, mITT): −1.11 (2.520) cm | SDLP, median difference (JZP-110 − Placebo) ([1]; 2 hours postdose, mITT): −0.78 cm | SDLP, median, observed ([1]; 2 hours postdose, mITT): 18.39 cm | SDLP, LS mean (SE) ([1]; 2 hours postdose, mITT, primary analysis): 18.83 cm | SDLP, LS mean (SE) [1, 3]: 18.83 (0.627) cm | SDLP, LS mean difference (JZP-110 − Placebo) [1, 3]: −1.084 cm | SDLP, mean (SD) [1, 4]: 18.58 (3.831) cm | SDLP, mean difference JZP-110 vs placebo [1, 4]: −0.26 cm | SDLP, median [1, 4]: 17.98 cm | SDLP, median difference JZP-110 vs placebo [1, 4]: −0.18 cm | SDLP, mean difference JZP-110 vs placebo [1, 5]: −1.91 cm | SDLP, median [1, 5]: 20.00 cm | SDLP, median difference JZP-110 vs placebo [1, 5]: −2.46 cm | SDLP, mean (SD) ([1]; 2 hours postdose, sequence Placebo/JZP-110, mITT, listed as JZP-110): 19.08 (3.643) cm | SDLP, mean (SD) ([1]; 2 hours postdose, sequence Placebo/JZP-110, mITT, listed as solriamfetol): 19.08 cm | driving lapses, LS mean difference solriamfetol vs placebo ([1]; 6 hours postdose): 0.050 lapses | standard deviation of speed (SDS), LS mean difference ([1]; 6 hours postdose): −0.109 km/h | SDLP, LS mean difference, sensitivity analysis ([1]; 6 hours postdose, PP population): −1.037 cm | SDLP, LS mean (SE) ([1]; 6 hours postdose, mITT): 19.24 (0.631) cm | SDLP, LS mean difference (JZP-110 − Placebo) ([1]; 6 hours postdose, mITT): −0.804 cm | SDLP, mean (SD) [1, 6]: 19.23 (3.224) cm | SDLP, mean difference JZP-110 vs placebo [1, 6]: 0.20 cm | SDLP, median [1, 6]: 18.92 cm | SDLP, median difference JZP-110 vs placebo [1, 6]: 0.43 cm | SDLP, mean difference JZP-110 vs placebo [1, 7]: −1.91 cm | SDLP, median [1, 7]: 19.24 cm | SDLP, median difference JZP-110 vs placebo [1, 7]: −1.33 cm | SDLP, mean (SD) ([1]; 6 hours postdose, sequence Placebo/JZP-110, mITT, listed as JZP-110): 19.23 (3.593) cm | SDLP, mean (SD) ([1]; 6 hours postdose, sequence Placebo/JZP-110, mITT, listed as solriamfetol): 19.23 cm | SDLP, difference in median values between the 2 treatments (solriamfetol-placebo) ([1]; placebo as initial treatment, both time points (2 and 6 hours postdose)): −1.91 cm | subjects who failed to complete the driving test ([1]; solriamfetol condition): 3 subjects | single McNemar test: proportion improved drivers versus impaired ([1]; threshold of 1.0 cm, 2 h post dose): 29.4% | Actual task effectiveness, LS mean (SE) (participants with OSA; 2 hours post-dose): 91.88 (1.12) | Actual task effectiveness, LS mean difference (participants with OSA; 2 hours post-dose): −2.35 | Actual task effectiveness, LS mean (SE) (participants with OSA; 6 hours post-dose): 93.72 (1.12) | Actual task effectiveness, LS mean difference (participants with OSA; 6 hours post-dose): −1.35 | Actual task effectiveness, LS mean (SE) (participants with OSA; pre-dose): 89.19 (1.12) | Actual task effectiveness, LS mean difference (participants with OSA; pre-dose): −4.45 | Actual task effectiveness, LS mean (SE) ([2]; 2 hours post-dose): 96.07 (1.65) | Actual task effectiveness, LS mean difference ([2]; 2 hours post-dose): 10.41 | Actual task effectiveness, LS mean (SE) ([2]; 6 hours post-dose): 93.89 (1.65) | Actual task effectiveness, LS mean difference ([2]; 6 hours post-dose): 7.60 | Actual task effectiveness, LS mean (SE) ([2]; pre-dose): 86.06 (1.65) | Actual task effectiveness, LS mean difference ([2]; pre-dose): −6.16
